From PMC9739695, “Water-Soluble Salts Based on Benzofuroxan Derivatives—Synthesis and Biological Activity” (International Journal of Molecular Sciences, 2022)
Like-named read-outs stand apart in the source and are kept apart here.

What was measured:
rice seeds = experiment: Pre-sowing seed treatment, sowing qualities of rice seeds; format: in vivo; conditions: for germination energy: control 71.4; for laboratory germination: control 95.2
Experimental: (§1) When evaluating the effectiveness of treatment of wheat, alfalfa, barley, rice, and sorghum seeds as fungicidal and bactericidal agents with preparation compounds at concentrations of 10, 20, and 40 mmol, their effect on the suppression of seed infection was evaluated.
(§2) […] The sowing qualities were evaluated (germination energy for 3–4 days, laboratory germination for 7–8 days) according to GOST 12038-84 [60]. Sowing qualities of seeds were determined in wet chambers. According to the sample, 50 seeds were taken in 4-fold repetition.

[1] = system: fungal microflora (mushrooms) on alfalfa seeds; experiment: Growth of fungal microflora on treated alfalfa seeds; format: cell-based
Experimental: (§3) During phytopathological analyses of agricultural crops, the species composition of fungal and bacterial microflora was established. Laboratory studies were carried out on two nutrient media potato-agar (ingredients: potatoes—200 g; agar-agar—20 g; distilled water—1000 mL.) and potato-dextrose agar (ingredients: potatoes—200 g;dextrose—20 g; agar-agar—20 g; distilled water—1000 mL), according to the guidelines.
When evaluating the effectiveness of treatment of wheat, alfalfa, barley, rice, and sorghum seeds as […], their effect on the suppression of seed infection was evaluated.

alfalfa seeds = experiment: Pre-sowing seed treatment, sowing qualities of alfalfa seeds; format: in vivo; conditions: control 76
Experimental: as §1, §2

[2] = system: Hek 293 (human embryonic kidneys); experiment: Cell viability, MTT test, normal cell line; format: cell-based; conditions: HEK293, Hek 293 normal cells, test range 0.1 to 100 μM, read-out: IC50 (concentration causing 50% inhibition of cell population growth)
Experimental: (§4) In this work, the cytotoxic potential of the water-soluble salts based on benzofuroxan was determined by the effect of compounds on the survival of the cell tumor origin cultures (SH-SY5Y, Hep2, A549, HeLa) using the MTT test. To understand how the synthesized compounds can influence the healthy microenvironment in the body, the effect of substances on the viability of a normal Hek 293 cell culture was additionally evaluated.
(§5) Human cell cultures of tumor origin—SH-SY5Y (neuroblastoma), HeLa (cervical tumor), Hep-2 (larynx carcinoma), A549 (adenocarcinomic human alveolar basal epithelial cells)—and normal cell line Hek 293 (human embryonic kidneys), provided by the Laboratory of Tumor Cell Genetics of the Scientific Research Institute of Carcinogenesis, N.N. Blokhin National Medical Research Center of Oncology, as well as the Institute of Cytology of the Russian Academy of Sciences, were grown in a nutrient medium DMEM (PanEco, Moscow, Russia) and MEM (PanEco, Moscow, Russia), containing fetal bovine serum (10% by volume) (ThermoFisher Scientific, Paisley, UK), Glutamax (2 mM) (Gibco, Scotland, UK), and penicillin-streptomycin (1% by volume) (PanEco, Moscow, Russia). The cultivation was carried out at 37 °C in a humidified CO2 atmosphere (5%).
(§6) Cell viability was determined by MTT test. Cells were seeded in a 96-well plate in the amount of 1 × 10^4 cells/200µLof complete nutrient medium and cultured at 37 °C in CO2 (5%). After 24 h of incubation, various concentrations of test compounds in the range from 0.1 to 100 μM, were added to the cell cultures, and then the cells were cultured under the same conditions for 24 and 72 h. For each concentration, the experiment was carried out in triplicate.
(§7) All compounds were dissolved in DMSO, then diluted with the medium to the required concentration. […] The DMSO was also added to the control wells in a volume of 1%. After the incubation time, MTT (3-(4,5-dimethylthiazol-2-yl)-2,5-diphenyltetrazolium bromide, 5 mg/mL) was added to each well and plates were additionally incubated for 2 h (until the characteristic color appeared).
(§8) Using a plate analyzer (Cytation3, BioTech Instruments Inc., Winooski, VT, USA), the optical density was determined at 530 nm. The concentration value causing 50% inhibition of cell population growth (IC50) was determined from dose-dependent curves.

sorghum seeds = experiment: Pre-sowing seed treatment, sowing qualities of sorghum seeds; format: in vivo; conditions: for germination energy: control 52.3; for laboratory germination: control 57
Experimental: as §1, §2

[3] = system: bacterial microflora on rice seeds; experiment: Growth of bacterial microflora on treated rice seeds; format: cell-based
Experimental: as §3, §1

[4] = system: bacterial microflora on barley seeds; experiment: Growth of bacterial microflora on treated barley seeds; format: cell-based
Experimental: as §3, §1

barley seeds = experiment: Pre-sowing seed treatment, sowing qualities of barley seeds; format: in vivo; conditions: control 95.2
Experimental: as §1, §2

wheat seeds = experiment: Pre-sowing seed treatment, sowing qualities of wheat seeds; format: in vivo; conditions: for germination energy: control 82; for laboratory germination: control 85.7
Experimental: as §1, §2

[5] = system: A549 (adenocarcinomic human alveolar basal epithelial cells); experiment: Cell viability, MTT test; format: cell-based; conditions: test range 0.1 to 100 μM, read-out: IC50 (concentration causing 50% inhibition of cell population growth)
Experimental: as §4, §5, §6, §7, §8

Hep-2 (larynx carcinoma) = experiment: Cell viability, MTT test; format: cell-based; conditions: Homo sapiens, HEp-2, test range 0.1 to 100 μM, read-out: IC50 (concentration causing 50% inhibition of cell population growth)
Experimental: as §4, §5, §6, §7, §8

HeLa (cervical tumor) = experiment: Cell viability, MTT test; format: cell-based; conditions: Homo sapiens, test range 0.1 to 100 μM, read-out: IC50 (concentration causing 50% inhibition of cell population growth)
Experimental: as §4, §5, §6, §7, §8

SH-SY5Y (neuroblastoma) = experiment: Cell viability, MTT test; format: cell-based, Human; conditions: Homo sapiens, SH-SY5Y, test range 0.1 to 100 μM, read-out: IC50 (concentration causing 50% inhibition of cell population growth)
Experimental: as §4, §5, §6, §7, §8

**Q.** For `O=[N+]([O-])c1c(Cl)cc2c(no[n+]2[O-])c1NCCN1CCOCC1` [4d, 6-chloro-4-(2-(morpholino-4-ium)ethylamino)-5-nitrobenzo[c][1,2,5]oxadiazole 1-oxide chloride], which germination energy (rice seeds; 10 mmol) is on record?
**A.** 52.3%

**Q.** What about the laboratory germination (rice seeds; 10 mmol) of the same compound?
**A.** 52.3%

**Q.** And the germination energy (rice seeds; 20 mmol)?
**A.** 47.6%

**Q.** What about the laboratory germination (rice seeds; 20 mmol) of the same compound?
**A.** 95.2%

**Q.** And the “sowing qualities of seeds compared with control” value (rice seeds; 40 mmol)?
**A.** better results than the control

**Q.** What about the germination energy (rice seeds; 40 mmol) of the same compound?
**A.** 99%

**Q.** And the laboratory germination (rice seeds; 40 mmol)?
**A.** 99%

**Q.** What about the “effect on fungal microflora” value ([1]; 10 mmol) of the same compound?
**A.** positive effect on the suppression of fungal microflora

**Q.** What about the “effect on fungal microflora” value ([1]; 20 mmol) of the same compound?
**A.** positive effect on the suppression of fungal microflora

**Q.** And the germination energy (alfalfa seeds; 10 mmol)?
**A.** 43.3%

**Q.** What about the laboratory germination (alfalfa seeds; 10 mmol) of the same compound?
**A.** 50%

**Q.** And the germination energy (alfalfa seeds; 20 mmol)?
**A.** 63.3%

**Q.** What about the laboratory germination (alfalfa seeds; 20 mmol) of the same compound?
**A.** 73.3%

**Q.** What about the germination energy (alfalfa seeds; 40 mmol) of the same compound?
**A.** 78%

**Q.** What about the laboratory germination (alfalfa seeds; 40 mmol) of the same compound?
**A.** 80.5%

**Q.** And the IC50 ([2]; incubation 24 h)?
**A.** 40.8 ± 2.84 µM

**Q.** And the IC50 ([2]; incubation 72 h)?
**A.** 28.1 ± 0.93 µM

**Q.** What about the germination energy (sorghum seeds; 10 mmol) of the same compound?
**A.** 33.3%

**Q.** What about the laboratory germination (sorghum seeds; 10 mmol) of the same compound?
**A.** 40%

**Q.** What about the “sowing qualities of seeds compared with control” value (sorghum seeds; 20 mmol) of the same compound?
**A.** higher than in the control

**Q.** And the germination energy (sorghum seeds; 20 mmol)?
**A.** 76.1%

**Q.** What about the laboratory germination (sorghum seeds; 20 mmol) of the same compound?
**A.** 80.9%

**Q.** And the germination energy (sorghum seeds; 40 mmol)?
**A.** 58.5%

**Q.** What about the laboratory germination (sorghum seeds; 40 mmol) of the same compound?
**A.** 61.5%

**Q.** What about the “effect on bacterial microflora” value ([3]; 10 mmol) of the same compound?
**A.** positive effect on the suppression of bacterial microflora

**Q.** And the “effect on bacterial microflora” value ([3]; 20 mmol)?
**A.** positive effect on the suppression of bacterial microflora

**Q.** And the “effect on bacterial microflora” value ([4]; 10 mmol)?
**A.** slight suppression of the bacterial microflora

**Q.** And the “effect on bacterial microflora” value ([4]; 40 mmol)?
**A.** slight suppression of the bacterial microflora

**Q.** What about the germination energy (barley seeds; 10 mmol) of the same compound?
**A.** 71.4%

**Q.** And the laboratory germination (barley seeds; 10 mmol)?
**A.** 71.4%

**Q.** What about the germination energy (barley seeds; 20 mmol) of the same compound?
**A.** 66.6%

**Q.** What about the laboratory germination (barley seeds; 20 mmol) of the same compound?
**A.** 66.6%

**Q.** What about the germination energy (barley seeds; 40 mmol) of the same compound?
**A.** 95%

**Q.** What about the laboratory germination (barley seeds; 40 mmol) of the same compound?
**A.** 98.5%

**Q.** What about the germination energy (wheat seeds; 10 mmol) of the same compound?
**A.** 47.6%

**Q.** And the laboratory germination (wheat seeds; 10 mmol)?
**A.** 47.6%

**Q.** And the germination energy (wheat seeds; 20 mmol)?
**A.** 71.4%

**Q.** What about the laboratory germination (wheat seeds; 20 mmol) of the same compound?
**A.** 71.4%

**Q.** And the “sowing qualities of seeds compared with control” value (wheat seeds; 40 mmol)?
**A.** higher than in the case of controls

**Q.** And the germination energy (wheat seeds; 40 mmol)?
**A.** 98%

**Q.** And the laboratory germination (wheat seeds; 40 mmol)?
**A.** 98.5%

**Q.** What about the IC50 ([5]; A549, incubation 24 h) of the same compound?
**A.** > 100 µM

**Q.** And the IC50 ([5]; A549, incubation 72 h)?
**A.** 98.21 ± 0.1 µM

**Q.** And the IC50 (Hep-2 (larynx carcinoma); Hep2, incubation 24 h)?
**A.** 91.3 ± 1.4 µM

**Q.** And the IC50 (Hep-2 (larynx carcinoma); Hep2, incubation 72 h)?
**A.** 89.9 ± 3.12 µM

**Q.** What about the IC50 (HeLa (cervical tumor); incubation 24 h) of the same compound?
**A.** 40.5 ± 1.9 µM

**Q.** What about the IC50 (HeLa (cervical tumor); incubation 72 h) of the same compound?
**A.** 35.47 ± 0.12 µM

**Q.** What about the IC50 (SH-SY5Y (neuroblastoma); incubation 24 h) of the same compound?
**A.** 24.3 ± 1.91 µM

**Q.** And the IC50 (SH-SY5Y (neuroblastoma); incubation 72 h)?
**A.** 22.8 ± 1.9 µM
